Experimental data taken from patent US20100173025A1, “FAT ABSORPTION INHIBITORY COMPOSITION” (NISSHIN PHARMA INC., priority 2007, published 2010).

Test system: lipase (produced by Sigma)
Assay: Determination of lipase inhibitory activity (olive oil substrate emulsion, copper reagent, absorbance at 480 nm)
Type: biochemical
Details: 37° C., 30 minutes
Experimental: Ten micro litter of a solution containing the composition of the present invention obtained in Example 2 or 3 (diluted with a buffer to a final concentration of 0.01 or 0.1 mg/mL) or 10 μL of a solution containing the composition of the present invention obtained in Example 4 (at a final concentration of 1 mg/mL) was added to 80 μL, of a substrate emulsion (3.0 g of obtained by adding olive oil to 100 mL of a buffer described below, followed by sonication). The resultant was allowed to stand at 37° C. for 10 minutes. Ten micro litter of a lipase solution (diluted with a buffer to a concentration of lipase (produced by Sigma) of 1.0 mg/mL) was added thereto. The mixture was reacted with an enzyme reaction at 37° C. for 30 minutes. […] A coloring solution was added to the supernatant for determination of an absorbance at 480 nm. […] Results were calculated by Equation 1 described below with absorbance of the following: the composition of the present invention; a blank replaced the lipase solution with a buffer; and a control replaced a solution containing the composition of the present invention with a buffer. […]
Inhibition rate (%)=[1−[absorbance of the composition of the present invention−blank absorbance]/[control absorbance−blank absorbance]]

purothionin [Positive control]
Lipase inhibition rate (final concentration 0.1 mg/mL): 76%
Lipase inhibition rate (final concentration 1 mg/mL): 96%
